Entries after “also recorded” stand apart in the source; their conditions may differ.
Key:
[1] = test system: frataxin deficient fibroblasts (GM03665) from Friedreich's ataxia patient; test: Frataxin Deficient Fibroblast Viability Assay (BSO Assay); type: cell-based; details: for EC50: Homo sapiens, Fibroblast, FA patient fibroblasts pretreated with compound, BSO 10 mM, MTT after 48 hrs
Protocol: Example 12: Frataxin Deficient Fibroblast Viability Assay (the “BSO Assay”)
This Example was used to evaluate the various new compositions for their potential efficacy in the treatment of Friedreich's Ataxia (FA or FRDA)—substantially as described in the above cited Reference (Matthias et al.).
The stock solutions of the test articles (and control compounds) were prepared in dimethyl sulfoxide (DMSO at 10 mM), Working stock solutions (2 times concentrated) were prepared on the day of the experiment in respective cell culture medium to be used for assay (detailed medium description below). A listing of compounds used as test articles in this Example 12 are found in Table 1, below.
A patient derived frataxin deficient fibroblast cell line was obtained from Coriell Institute. More specifically, the following cell lines/DNA samples were obtained from the NIGMS Human Genetic Cell Repository at the Coriell Institute for Medical Research: GM03665. To evaluate importance of various growth conditions on cell susceptibility to BSO toxicity cells were grown on:
MEM (Sigma-Aldrich) 15% Fetal Bovine Serum (FBS) without growth factors;
MEM (Sigma-Aldrich) 15% FBS with growth factors (Catalogue number 100-18B, Recombinant Human FGF-basic (154 a.a.) and catalogue number AF-100-15, Animal-Free Recombinant Human EGF from Peprotech);
MEM199/MEM EBS (Bioconcept Ltd.) 10% FBS, insulin 10 μg/ml, L-glutamine 2 mM with growth factors (Catalogue number 100-18B, Recombinant Human FGF-basic (154 a.a.) and catalogue number AF-100-15, Animal-Free Recombinant Human EGF from Peprotech).
To conduct an experiment, fibroblast cells (from all growth conditions) were seeded (100 μL (cells 3×10^3/well) on 96-well plates in MEM199/MEM EBS medium 10% FBS, insulin 10 μg/mL, L-glutamine 2 mM with growth factors and allowed to grow on plate for 24 hrs. After 24 hrs., media was removed and then test compounds of interest were added (100 μL, 2 times concentrated stock) to 96-well plates (end DM80 concentration not exceeding 0.5%) and incubated for 24 hours. Then L-buthionine-sulfoximine (BSO, from Acros Organics, Cat. No. 235520010) was added (100 μL, 2 times concentrated stock) at end concentrations ranging from 1 to 10 mM. Both test compounds and BSO were dissolved in MEM199/MEM EBS medium 10% FBS, insulin 10 μg/mL, L-glutamine 2 mM with growth factors. Cell viability was monitored and either after 24- or 48-hours cell viability was assayed by MTT (Thiazolyl blue tetrazolium bromide) assay. For the MTT assay, media was removed and 100 μL of MTT 1 mg/mL was added, incubated for 2 hours at +37° C., then medium was removed and 100 μL of isopropanol added to dissolve sediment. Absorption was measured at 570 (OD570) and 650 (QD650) nm wavelengths. Control cells (vehicle instead of BSO and compound) and vehicle control (with BSO, but vehicle instead of test compound) were treated in the same manner as ceils with BSO and compound. All cell media contained penicillin and streptomycin 100 U/mL each.
Absorption readouts were processed as follows: ValueΔ=ValueOD570−ValueOD650 and the obtained values were used to calculate cell viability as % of control cell (i.e., no BSO, no compound, just vehicle) viability.
Except as otherwise indicated in Table 1, all samples were run in at least 3 replicates for test compounds and at least 8 replicates for controls (i.e., both control (no BSO, no compound) and vehicle control (i.e., with BSO, no compound). Exact N per data points are indicated in the figures/table legends. Results for the compounds (test articles and controls) tested are listed in Table 1, below.
This is a cell-based assay measuring cytotoxicity which results from oxidative stress subsequent to depletion of endogenous glutathione defense mechanisms. The cells were primary Friedreich Ataxia (FA) patient fibroblasts which were incubated for 48 hrs. in BSO, an inhibitor of gamma glutamyl synthetase, an enzyme required for glutathione production. […]

[2] = test system: HepG2 human hepatocarcinoma cells; test: Rotenone ATP Assay (Complex I by-pass assay); type: cell-based
Protocol: Example 13: Rotenone ATP Assay (a Complex I by-Pass Assay)
This assay has been adapted from Haefeli R H, Erb M, Gemperli A C, Robay D, Courdier Fruh I, et al. (2011) NQO1-Dependent Redox Cycling of Idebenone: Effects on Cellular Redox Potential and Energy Levels. PLoS ONE 6(3): e17963. HepG2 human hepatocarcinoma cells are co-incubated with the electron transport chain complex I toxin rotenone +/− compounds of interest and the corresponding effect on ATP synthesis is measured with a bioluminescent substrate.
The stock solutions of the test articles (See Table 1, below for a list of the test articles examined using this assay) were prepared in dimethyl sulfoxide (DMSO at 10 mM). Working stock solutions were prepared on the day of the experiment in glucose free, serum free Dulbecco's modified Eagles medium (DMEM) supplemented with 50 micromolar rotenone.
In brief, HepG2 cells were plated at 25,000 cells per well in low glucose (1 gram/Liter) DMEM medium+10% fetal calf serum and incubated for 24 hours. The following day, the media was decanted and subsequently replaced with glucose free/serum free DMEM which has been supplemented with 50 micromolar rotenone and compound of interest. Serial dilutions of compound were prepared in 3× dilutions beginning at 25 micromolar. The cells were incubated for 60 minutes in a humidified tissue culture incubator. Following incubation, ATP levels were quantified via bioluminescent assay (Promega […] Glo Assay kit) and readings were captured on a standard microplate reader.
ATP bioluminescence is plotted versus the log of compound of interest and data are used to generate EC50 values. Curve fitting is performed using a sigmoidal dose response curve fit function (GraphPad Prism software).
EC50 values were derived from seven-point dose response curves performed on n=3 technical replicates per dose. Robustness of curve fit was assessed as a quality control measure, with an R squared value of at least 0.80 being required for a successful curve fit. Compounds of interest showing an increase in ATP bioluminescence relative to vehicle control were verified in an independent biological replicate of n=3 technical replicates per dose.
This assay is a direct measure of the ability of compounds of interest to restore ATP production under conditions of inhibition of Complex I of the mitochondrial electron transport chain. As the majority of ATP produced via the electron transport chain is thought to derive from Complex I activity, significant impairment in Complex I function has dire biological consequences. Of note, Complex I mutations are thought to drive pathophysiology in multiple mitochondrial diseases, including Leigh syndrome and Leber's Hereditary Optic Neuropathy (LHON), while diminished Complex I activity and the resultant attenuation of ATP production has been shown in neurodegenerative diseases, including Friedreich's Ataxia, Parkinson's Disease and Huntington's Disease. In brief, most compounds were tested in the Rotenone Oxygraph Assay instead of this assay but only Idebenone was active amongst Omaveloxolone, Idebenone and Vatiquinone.

HepG2 cells = test: Rotenone Oxygraph Assay (high-resolution respirometry of intact HepG2 cells); type: cell-based, human
Protocol: Example 15: Rotenone Oxygraph Assay (High-Resolution Respirometry of Intact HepG2 Cells)
The Oxygraph-2k (O2k, OROBOROS INSTRUMENTS, Austria) was used for measurements of respiration of intact cells. The respirometry was performed in Dulbecco's Modified Eagle Medium (DMEM) high glucose without supplements. All experiments were performed at 37° C.
HepG2 cells (ATCC collection code HB-8065™) were cultured in 10 cm^2 culture dishes in DMEM high glucose medium supplemented with 10% fetal bovine serum (FBS) and 100 units/mL penicillin and 100 μg/mL streptomycin until approximately 90% confluence was reached. Immediately prior to performing the respirometric assay, the cells were washed with media without FBS, trypsinized and resuspended in DMEM high glucose without FBS.
The final concentration of intact cells in the O2k-chamber was 0.5-10^6/mL. After stabilization of respiration, the Complex I inhibitor, rotenone, at 1 μM final concentration was added to inhibit electron flux via Complex I. Then, compound to be tested was added at 10 μM final concentration, and the change in respiration rate of intact cells was monitored. […]

[3] = test system: GM03665 cells (fibroblasts from a subject with Friedreich's ataxia); test: RSL-3 Toxicity Assay (RSL-3 Assay); type: cell-based, human
Excerpt: Example 14: RSL-3 Toxicity Assay (RSL-3 Assay)
This assay has been adapted from: Hinman, A., Holst, C. R., Latham, J. C., Bruegger, J. J., Ulas, G., McCusker, K. P., Amagata, A., Davis, D., Hoff, K. G., Kahn-Kirby, A. H., Kim, V., Kosaka, Y., Lee, E., Malone, S. A., Mei, J. J., Richards, S. J., Rivera, V., Miller, G., Trimmer, J. K., Shrader, W. D., “Vitamin E hydroquinone is an endogenous regulator of ferroptosis via redox control of 15-lipoxygenase”, (2018) PLoS ONE 13(8): e0201369.
In brief, GM03665 cells (Coriell Institute) were seeded in 96-well plates (Sarstedt) in DMEM cell culture media containing 10% Fetal Bovine serum and 1% Penicillin-Streptomycin (Pen-Strep) antibiotic mix at the amount of 2×10^4/mL (100 μL or 2×10^3 cells per well). Cells were left to rest overnight at 37° C. in a humidified atmosphere with 5% CO2 to allow attachment of the cells to the culture plate. Test compounds were prepared as DMSO stocks (10 mM) and were serially diluted in cell culture media to obtain 2× working solutions. Cell media was discarded and replaced by 50 μL of test compound solutions or cell media with vehicle for control wells. Within 15 minutes, 2× working solution (4 μM) of 1S,3R-RSL-3 (CAS #1219810-16-8, Sigma-Aldrich) (diluted from 5 mM DMSO stock in cell culture media) was added. Final reaction volume was 100 μL and final DMSO concentration in reaction was kept below 0.2% (v/v) and equal in all wells. Final RSL-3 concentration was 2 μM and test compound final concentrations in reaction were up to 1000 nM. After 24 hours of incubation cell viability was assessed by MTT test. MTT (Sigma-Aldrich) solution 1 mg/mL in IX PBS (pH=7.4) was prepared 1 hour before the assay and filtered through Filtropur S 0.2 filters (Sarstedt). Cell media with test compounds was discarded and 100 μL of MTT solution was added to cells. The plates were incubated for 2 hours at +37° C. Thereafter, the MTT solution was removed and 100 μL of isopropanol was added to dissolve sediment. Absorption at 570 and 650 nm was measured using Hidex Sense microplate reader.
Compounds A and B and idebenone were not examined in this assay. The data presented in Table 1 indicates omaveloxolone was not active in this assay but that vatiquinone was active.
Discussion—Both BSO and RSL-3 are frequently utilized to induce the regulated cell death pathway known as ferroptosis. Ferroptosis is thought to require the joint activity of iron catalyzed oxidative stress and lipid peroxidation and has been described in cell and animal models of multiple neurodegenerative diseases, including Friedreich's Ataxia, Huntington Disease, Parkinson Disease and Alzheimer's Disease. […] Of note, the results for Compounds C-I and K were favorable with respect to inhibition of ferroptotic cell death when either BSO or RSL3 were used as initiating stimulus, differentiating these compounds from omaveloxolone and idebenone.

COC1=C(OC)C(=O)C(C/C=C(\C)CC/C=C(\C)CCC=C(F)F)=C(C)C1=O [Compound B, 2-((2E,6E)-11,11-difluoro-3,7-dimethylundeca-2,6,10-trien-1-yl)-5,6-dimethoxy-3-methylcyclohexa-2,5-diene-1,4-dione]
EC50 [1]: 199 nM | Complex I by-pass activity in Rotenone ATP Assay (in words) [2]: comparable to that of Idebenone | EC50 ([2]; Homo sapiens, 1 h, HepG2, 50 micromolar rotenone, 60 minutes, ATP bioluminescence): 1020 nM

COC1=C(OC)C(=O)C(CCCCCCCCCCO)=C(C)C1=O [Idebenone, reference compound]
protection against BSO induced cell death (in words) ([1]; BSO Assay, text statement): not really very protective at all; also recorded: only very weakly active | EC50 [1]: > 1000 nM | Complex I by-pass activity in Rotenone ATP Assay (in words) [2]: active | Complex I by-pass activity in Rotenone Oxygraph Assay (in words) (HepG2 cells): active | activation at 10 µM (HepG2 cells; Homo sapiens, intact HepG2 cells, rotenone 1 μM, compound 10 μM, increase in respiration rate): 70.2%

CC(C)=CCC/C(C)=C/CC/C(C)=C/CC[C@@](C)(O)CCC1=C(C)C(=O)C(C)=C(C)C1=O [Vatiquinone, reference compound]
Complex I by-pass activity in Rotenone ATP Assay (in words) [2]: inactive | ATP Rotenone Assay EC50 ([2]; HepG2, 50 micromolar rotenone, 60 minutes, ATP bioluminescence): Inactive | protection against RSL-3 toxicity (in words) [3]: active | EC50 ([3]; Homo sapiens, Fibroblast, GM03665 cells, RSL-3 2 μM, 24 hours, MTT): 56 nM | Complex I by-pass activity in Rotenone Oxygraph Assay (in words) (HepG2 cells): inactive | Rotenone Oxygraph Assay % Increase (HepG2 cells; intact HepG2 cells, rotenone 1 μM, compound 10 μM, increase in respiration rate): Inactive

Reference: US12037350B2, “Compositions and methods for the prevention and/or treatment of mitochondrial disease, including Friedreich's ataxia” (Stealth BioTherapeutics Inc., priority 2020, dated 2024)
